Entries after “also recorded” stand apart in the source; their conditions may differ.
Assays:
[1] = Single oral administration of 14C-labeled apalutamide 240 mg (metabolite profile, excretion)
[2] = target: T1, organic anion transporter 1 (OAT1) (Homo sapiens, UniProt Q4U2R8); test: In vitro transporter inhibition: OAT1
T1 sequence (Q4U2R8 1-563): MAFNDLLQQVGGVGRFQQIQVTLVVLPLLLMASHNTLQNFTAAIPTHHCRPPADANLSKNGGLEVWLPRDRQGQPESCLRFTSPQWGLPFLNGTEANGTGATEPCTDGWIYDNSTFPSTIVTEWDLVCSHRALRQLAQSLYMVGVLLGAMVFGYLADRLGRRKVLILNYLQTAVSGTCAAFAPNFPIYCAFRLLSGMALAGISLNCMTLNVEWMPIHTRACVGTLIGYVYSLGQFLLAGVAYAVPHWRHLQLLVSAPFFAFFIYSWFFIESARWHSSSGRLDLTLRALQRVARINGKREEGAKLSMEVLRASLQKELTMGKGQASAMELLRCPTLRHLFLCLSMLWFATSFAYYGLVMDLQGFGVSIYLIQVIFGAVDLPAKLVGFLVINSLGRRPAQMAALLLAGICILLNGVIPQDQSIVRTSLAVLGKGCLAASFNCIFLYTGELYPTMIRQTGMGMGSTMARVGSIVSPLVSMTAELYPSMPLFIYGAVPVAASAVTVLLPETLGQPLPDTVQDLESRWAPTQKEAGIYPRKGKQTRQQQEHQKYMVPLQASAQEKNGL

[3] = Phase III study (SPARTAN, Study 1): safety; format: in vivo, human
Excerpt: SPARTAN, a randomized (2:1), double-blind, placebo-controlled, multi-center clinical study, enrolled patients who had non-metastatic, castration-resistant prostate cancer (NM-CRPC).

CNC(=O)c1ccc(N2C(=S)N(c3cnc(C#N)c(C(F)(F)F)c3)C(=O)C23CCC3)cc1F [apalutamide, 4-[7-(6-cyano-5-trifluoromethylpyridin-3-yl)-8-oxo-6-thioxo-5,7-diazaspiro[3.4]oct-5-yl]-2-fluoro-N-methylbenzamide]
share of the total 14C-AUC in plasma ([1]; single oral 240 mg): 45% | % of dose in feces as this compound ([1]; up to 70 days): 1.5% | % of dose in urine as this compound ([1]; up to 70 days): 1.2% | radioactivity recovered in feces ([1]; up to 70 days): 24% | radioactivity recovered in urine ([1]; up to 70 days): 65% | radioactivity recovered ([1]; up to 70 days post-dose): 89% | inhibition of OAT1 [2]: No in vitro inhibition; also recorded: do not inhibit | Arthralgia ([3]; All Grades): 15.9% | Fall ([3]; All Grades): 15.6% | Fracture (grouped term) ([3]; All Grades): 11.7% | Hypercholesterolemia ([3]; All Grades): 6.1% | Hypertriglyceridemia ([3]; All Grades): 3.5% | Hypothyroidism (grouped term) ([3]; All Grades): 8.1% | Pruritus ([3]; All Grades): 6.2% | Seizure ([3]; All Grades): 0.2% | Skin rash (grouped term) ([3]; All Grades): 24% | Weight decreased ([3]; All Grades): 16.1% | Fatigue ([3]; All Grades, N = 803): 30.4% | Skin rash (grouped term) ([3]; All Grades, listed as Apalutamide): 23.8% | Arthralgia ([3]; Grade 3-4): 0% | Fall ([3]; Grade 3-4): 1.7% | Fatigue ([3]; Grade 3-4): 0.9% | Fracture (grouped term) ([3]; Grade 3-4): 2.7% | Hypercholesterolemia ([3]; Grade 3-4): 0% | Hypertriglyceridemia ([3]; Grade 3-4): 0.6% | Hypothyroidism (grouped term) ([3]; Grade 3-4): 0% | Pruritus ([3]; Grade 3-4): 0.2% | Seizure ([3]; Grade 3-4): 0% | Skin rash (grouped term) ([3]; Grade 3-4): 5.2% | Weight decreased ([3]; Grade 3-4): 1.1% | onset of skin rash, median ([3]; days of treatment): 82 days | Grade 3 skin rashes (covering >30% body surface area) ([3]; in vivo): 5.2% | Hypothyroidism in patients already receiving thyroid replacement therapy ([3]; in vivo): 28% | Hypothyroidism in patients not receiving thyroid replacement therapy ([3]; in vivo): 5.7% | discontinuations due to adverse events ([3]; in vivo): 11% | dose interruption among patients with skin rash ([3]; in vivo): 28% | dose reduction among patients with skin rash ([3]; in vivo): 12% | dose reduction, reason "other" ([3]; in vivo): 9.7% | dose reduction, reason adverse event ([3]; in vivo): 11% | patients whose skin rash resolved ([3]; in vivo): 81% | recurrence of skin rash in patients who were re-challenged ([3]; in vivo): approximately half | subjects receiving no dose modifications ([3]; in vivo): 79% | subjects with 2 dose interruptions ([3]; in vivo): 6.6% | subjects with dose interruptions due to TEAEs ([3]; in vivo): 34% | subjects with dose reductions ([3]; in vivo): 21% | subjects with one dose interruption ([3]; in vivo): 22% | subjects with one dose reduction ([3]; in vivo): 8.2% | subjects with two dose reductions ([3]; in vivo): 13% | time to resolution of rash from onset, median ([3]; in vivo): 60 days | treatment discontinuation among patients who experienced skin rash ([3]; in vivo): 9%

— patent US11160796B2, “Anti-androgens for the treatment of non-metastatic castration-resistant prostate cancer” (priority 2017, dated 2021)
